Measurements from PubChem BioAssay AID812 (SRMLSC, 2007).
Activity calls are given as the source filed them. How the calls were made is not given here.

System: Saccharomyces cerevisiae lifespan extension, no nicotinamide
Assay: yeast lifespan extension without nicotinamide, confirmation, yeast lifespan extension project, S. cerevisiae (AID 812);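 further: growth read as optical density after 42 hours of incubation at 30C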

SMILES	EC50
CCSc1ccccc1C(=O)n1nnc2ccccc21	> 40 µM (inactive)
CC(C)C(OC(=O)CN1C(=O)COc2ccccc21)C(=O)NC1CCCC1 (configuration not stated)	> 40 µM (inactive)
COn1c(SC2CCCCC2)nc2ccccc2c1=O	> 40 µM (inactive)
O=C(Nc1cccnc1)c1c(O)c2cccc3c2n(c1=O)CC3	> 40 µM (inactive)
COc1ccc(/C=C(/C(=O)c2ccc(Cl)cc2Cl)n2cncn2)cc1	> 40 µM (inactive)
O=C(COc1ccc2ccccc2c1)Nc1cccc(C(=O)Nc2ccccc2C(=O)O)c1	> 40 µM (inactive)
CN(C)CC(C(=O)c1ccccc1)c1ccccc1 (configuration not stated)	> 40 µM (inactive)
CCc1ccc(C(=O)CN2C(=O)NC(C)(CCc3ccccc3)C2=O)cc1 (configuration not stated)	> 40 µM (inactive)
Cc1ccc(-c2nc3ccc(Cl)cc3n2OC(=O)N(C)C)cc1	> 40 µM (inactive)
CC1=CN2C(=N)/C(=C/c3ccc([N+](=O)[O-])o3)C(=O)N=C2S1	> 40 µM (inactive)
CCOc1ccc(C2=NNC(c3cccs3)=Nc3ccc(OCC)cc32)cc1	> 40 µM (inactive)
CCOC(=O)C1Cc2cc3c(cc2C1=O)CC(C(=O)OCC)C3=O (configuration not stated)	> 40 µM (inactive)
O=C1Nc2cc(Cl)c(Cl)cc2N(O)N1c1cc(Cl)cc(Cl)c1	> 40 µM (inactive)
CCC(C)OC(=O)C1C(c2ccccc2)C(C(=O)O)C1c1ccccc1 (configuration not stated)	> 40 µM (inactive)
CC(=O)Oc1c(C(=O)c2nnc(C)o2)c(=O)n(C)c2ccccc12	> 40 µM (inactive)
O=c1cc(O)c2c(=O)n(-c3ccccc3)c3c(c2o1)CCCCCC3	> 40 µM (inactive)
CCN(CCO)C(=O)C12CCC(C)(C(=O)C1)C2(C)C (configuration not stated)	> 40 µM (inactive)
CCCCCCC1C(C#N)=C(N)OC2=C1C(=O)CC(C)(C)C2 (configuration not stated)	> 40 µM (inactive)
COCCN(CCOC)S(=O)(=O)c1ccc(C(=O)Nc2sc3c(c2C(N)=O)CCCCC3)cc1	> 40 µM (inactive)
CC(=O)Oc1ccc(N(C(C)=O)S(=O)(=O)c2ccc(C)c([N+](=O)[O-])c2)cc1	> 40 µM (inactive)
N#CSCC(=O)N1c2ccccc2CCc2ccccc21	> 40 µM (inactive)
CN(Cc1c(O)ccc2c1oc(=O)c1ccccc12)C1CCCCC1	> 40 µM (inactive)
COCCOC(=O)/C(=C/c1ccc(OC(=O)c2ccccc2)cc1)C(C)=O	> 40 µM (inactive)
COc1ccc(/C=C(\C#N)C(=O)N2CCOCC2)cc1Br	> 40 µM (inactive)

SMILES	EC50
CC(C)OCCCNS(=O)(=O)c1ccc2ccccc2c1	> 40 µM (inactive)
COc1ccc(/C=C/C(=O)C2C(=O)C=C(C)OC2=O)cc1O (configuration not stated)	> 40 µM (inactive)
CC1CCc2cc(F)cc3c(O)c(C(=O)NCc4ccco4)c(=O)n1c23 (configuration not stated)	> 40 µM (inactive)
CCN(CC)Cc1c(O)c(Cl)cc2c(C)c(C)c(=O)oc12	> 40 µM (inactive)
Fc1cccc2sc(Nc3nnc(-c4ccco4)o3)nc12	> 40 µM (inactive)
CC(c1ccco1)N(C(=O)c1ccccc1NS(=O)(=O)c1cc([N+](=O)[O-])ccc1Cl)c1ccccn1 (configuration not stated)	> 40 µM (inactive)
C=CCN(CC=C)c1nc2ccccc2nc1C(C#N)C(=O)OC(C)C (configuration not stated)	> 40 µM (inactive)
CCOc1ccc2nc(NCCNC(=O)Nc3ccccc3)c(C#N)cc2c1	> 40 µM (inactive)
CN1C(=O)/C(=C/c2cccn2-c2ccc3ccccc3c2)C(=O)NC1=S	> 40 µM (inactive)
CCCCn1c(=O)c(C(=O)Nc2cnccn2)c(O)c2ccccc21	> 40 µM (inactive)
COc1cnc(-c2ccccn2)nc1Sc1cccc(Cl)c1	> 40 µM (inactive)
Oc1ccc2ccccc2c1C=Nc1ccccc1-c1nc2ccccc2[nH]1	> 40 µM (inactive)
C/C=C/Cn1c(N2CCCCCC2)nc2c1c(=O)[nH]c(=O)n2C	> 40 µM (inactive)
O=C1CC(c2ccccc2)CC(O)=C1C=NCCN1CCN(C(=O)Nc2ccccc2)CC1 (configuration not stated)	> 40 µM (inactive)
O=C(O)c1cccc2c1C(=O)N(C1CCCCC1)C2	> 40 µM (inactive)
COc1ccc(-c2cc(C(F)(F)F)nc(S(C)(=O)=O)n2)cc1	> 40 µM (inactive)
CCOC(=O)C1C(=O)C(C(C)=O)C(=O)CC1CC(C)SCC (configuration not stated)	> 40 µM (inactive)
CN(c1ccccc1)c1nc2ccsc2c(=O)s1	> 40 µM (inactive)
CC1=NN(Cc2ccccc2)C(=O)C1C(c1ccccc1)C(C#N)C#N (configuration not stated)	> 40 µM (inactive)
COc1ccc(C(=O)On2c(-c3ccc(Br)cc3)nc3ccccc3c2=O)cc1	> 40 µM (inactive)
CCc1c(C)c(C#N)c2nc3ccccc3n2c1Cl	> 40 µM (inactive)
CC(C)C(C(=O)O)N1C(=O)/C(=C/c2cccn2C)SC1=S (configuration not stated)	> 40 µM (inactive)
CCCC(=O)Nc1ccc(C(=O)NNC(=S)NC(=O)c2cccs2)cc1	> 40 µM (inactive)
CCCCN(CCCC)c1ccc(C(=O)c2ccccc2C(=O)O)c(O)c1	> 40 µM (inactive)

SMILES	EC50
Cc1cc(C)cc(CC2CC(=O)N(c3ccc(Cl)cn3)C2=O)c1 (configuration not stated)	> 40 µM (inactive)
Cc1cc(C)n(-c2ccc(OCC(=O)O)nn2)n1	> 40 µM (inactive)
O=C1C(C2=C(O)c3ccccc3C2=O)=Nc2ccccc21	> 40 µM (inactive)
CC1(C)Cc2ccccc2-c2nnc(SCC(=O)Nc3ccc4c(c3)OCO4)n21	> 40 µM (inactive)
O=C1CC(c2ccccc2)CC(O)=C1C=NCCN1CCNCC1 (configuration not stated)	> 40 µM (inactive)
Cc1ccc(C(=O)OC2=CC(=O)CC(C)(C)C2)cc1	> 40 µM (inactive)
CCc1ccc2nc(N3C(=O)C(O)=C(C(=O)c4ccco4)C3c3cccs3)sc2c1 (configuration not stated)	> 40 µM (inactive)
c1ccc(-c2cc(N3CCOCC3)nc3ccccc23)cc1	> 40 µM (inactive)
O=C(Oc1cc(=O)n2ccccc2n1)c1ccccc1	> 40 µM (inactive)
Cc1ccc(C(=O)NNC(=S)NC(=O)c2ccc(Cl)cc2)cc1	> 40 µM (inactive)
Cc1ccc(S(=O)(=O)C(C#N)c2nc3ccccc3nc2N2CCCC2)cc1 (configuration not stated)	> 40 µM (inactive)
CC1(C)CC(=O)c2sc(NS(C)(=O)=O)nc2C1	> 40 µM (inactive)
C=CCn1c(O)c(C(CC)=NCCN2CCOCC2)c(=O)[nH]c1=O	> 40 µM (inactive)
COc1ccc(NC(=O)/C(Cl)=C(/Cl)S(=O)Cc2ccc(C)cc2)cn1 (configuration not stated)	> 40 µM (inactive)
CCC1C/C(=C\c2cccnc2)C(=O)/C(=C/c2cccnc2)C1 (configuration not stated)	> 40 µM (inactive)
Cc1ccc(/C(O)=C2\C(=O)C(=O)N(c3cc(C)on3)C2c2cccc(Cl)c2)cc1 (configuration not stated)	> 40 µM (inactive)
CCOC(=O)COc1ccccc1/C=C\[N+](=O)[O-]	> 40 µM (inactive)
O=C(Nc1scc(-c2cccs2)c1C(=O)O)c1cccs1	> 40 µM (inactive)
C=C(C(=O)c1ccccc1)C(CC(=O)c1ccccc1)c1ccccc1 (configuration not stated)	> 40 µM (inactive)
CCc1ccc2c(c1)CCCN2C(=O)c1ccccc1C(=O)O	> 40 µM (inactive)
O=C1/C(=C\c2cccnc2)CN(Cc2ccccc2)C/C1=C\c1cccnc1	> 40 µM (inactive)
O=C(CCC1CCCC1)c1c(O)c2ccccc2oc1=O	> 40 µM (inactive)
O=C(NC(=S)NNS(=O)(=O)c1ccccc1)c1ccc([N+](=O)[O-])cc1	> 40 µM (inactive)
Nn1c(-c2ccccn2)nnc1-c1ccccn1	> 40 µM (inactive)
